Measurements reported in patent US7745450B2, “Pyrazolo[4,3-d]pyrimidines, processes for their preparation and methods for therapy” (Institute of Experimental Botany, priority 2002, dated 2010).

Legend:
[1] = target: cdk1/cyclin B (CDC2) (Homo sapiens, UniProt P06493); assay: CDK inhibition assay, cdk1/cyclin B (CDC2) kinase, histone phosphorylation; assay type: biochemical
Experimental: Selected compounds were tested for cdk1/cyclin B and cdk2/cyclin E inhibitory activity to determine the basic relationships between their interaction energy of docked complex and the inhibitory activity. Cdk2/cyclin E complex was produced in SIP insect cells co-infected with appropriate baculoviral construct. The cells were harvested 70 hours post infection in lysis buffer (50 mM Tris 7.4 pH, 150 mM NaCl, 5 mM EDTA, 20 mM NaF, 1% Tween 20, protease inhibitors) for 30 min on ice and the soluble fraction was recovered by centrifugation at 14.000 g for 10 min. The protein extract was stored at −80° C. until use. The final point test system for kinase activity measurement was used to carry out experiments on the kinetics under linear conditions. The assay mixture contained 1 mg/ml histone (Sigma Type III-S), 15 μM ATP, 0.2 μCi [γ-^32P] ATP and tested compound in a final volume of 20 μl, all in reaction buffer: 50 mM Hepes 7.4 pH, 10 mM MgCl2, 5 mM EGTA, 10 mM 2-glycerolphosphate, 1 mM NaF, 1 mM DTT and protease inhibitors. […] The measurement of kinase inhibition employed the digital imaging analyzer BAS 1800. The kinase activity was expressed as a percentage of maximum activity and the IC50 value was determined by graphic analysis. The kinase activity is expressed as a percentage of maximum activity, the apparent inhibition constants are determined by graphic analysis from dose-response curves presented on FIG. 1.

[2] = target: IκB-α kinase; assay: IκB-α kinase inhibition, in vitro kinase assay; assay type: biochemical
[3] = tested on: CEM (human lymphoblastoid leukemia); assay: In vitro cytotoxic activity, Calcein AM; assay type: cell-based; settings: Homo sapiens, 72 h, three days
Experimental: We have been using the following cell lines: HELA (human cervical carcinoma), MCF7 (human breast adenocarcinoma), NIH 3T3 (mouse fibroblasts), HOS (human osteogenic sarcoma), HL 60 (human promyelocytic leukemia), G 361 (human malignant melanoma), K562 (human erythroleukemia), CEM (human lymphoblastoid leukemia). Tested drugs were added to the cell cultures in six different concentration and kept at 37° C. and 5% CO2 for three days. All cell lines were grown in DMEM medium (Gibco BRL) supplemented with 10% (v/v) fetal bovine serum and L-glutamine and maintained at 37° C. in a humidified atmosphere with 5% CO2. 10^4 cells were seeded into each well of 96 well plate, allowed to stabilize for at least 2 h and then tested compounds were added at various concentrations ranging from 200 to 0.2 μM in triplicates. Three days after drug addition Calcein AM solution (Molecular Probes) was added and let to enter the cells for 1 hour. Fluorescence of viable cells was quantified employing Fluoroskan Ascent (Microsystems).

[4] = tested on: B16; assay: In vitro cytotoxic activity, Calcein AM; assay type: cell-based; settings: Mus musculus, B16, 72 h, three days

Sequence of cdk1/cyclin B (CDC2) (P06493 whole entry, species assumed): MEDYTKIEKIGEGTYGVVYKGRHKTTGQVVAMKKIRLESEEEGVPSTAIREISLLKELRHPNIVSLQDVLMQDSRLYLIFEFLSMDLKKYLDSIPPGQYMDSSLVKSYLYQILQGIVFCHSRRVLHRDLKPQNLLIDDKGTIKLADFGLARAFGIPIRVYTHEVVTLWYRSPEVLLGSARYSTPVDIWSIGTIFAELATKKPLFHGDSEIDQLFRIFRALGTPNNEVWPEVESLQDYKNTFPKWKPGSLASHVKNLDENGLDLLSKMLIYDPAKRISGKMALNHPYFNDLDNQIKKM
Sequence of cdk1/cyclin B (CDC2) (P14635 whole entry partner, species assumed): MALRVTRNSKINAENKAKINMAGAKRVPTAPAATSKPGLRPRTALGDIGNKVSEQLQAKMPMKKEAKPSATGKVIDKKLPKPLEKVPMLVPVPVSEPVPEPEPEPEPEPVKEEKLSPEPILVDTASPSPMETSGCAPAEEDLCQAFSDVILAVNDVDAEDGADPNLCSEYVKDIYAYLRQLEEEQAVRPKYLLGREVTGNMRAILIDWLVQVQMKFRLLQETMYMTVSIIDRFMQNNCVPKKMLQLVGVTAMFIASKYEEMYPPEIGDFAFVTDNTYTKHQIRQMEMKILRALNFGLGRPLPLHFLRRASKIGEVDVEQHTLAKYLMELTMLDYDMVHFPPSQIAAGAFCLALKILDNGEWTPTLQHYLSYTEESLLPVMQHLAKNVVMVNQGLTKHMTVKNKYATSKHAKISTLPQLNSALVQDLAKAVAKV

Structure (SMILES) | IC50 [1] [nM] | IC50 [2] [nM] | GI50 [3] [nM] | GI50 [4] [nM]
CC(=O)Oc1ccccc1CNc1nc(NCCO)nc2c(C)n[nH]c12 | 500 | 1200 | – | –
CC(=O)c1ccccc1CNc1nc(NCCO)nc2c(C)n[nH]c12 | 10 | 50 | – | –
Cc1n[nH]c2c(NCc3cccc(Cl)c3O)nc(NCCO)nc12 | 10 | 30 | – | –
COc1cccc(CNc2nc(NCCO)nc3c(C)n[nH]c23)c1O | 10 | 40 | – | –
Cc1cccc(CNc2nc(NCCO)nc3c(C)n[nH]c23)c1O | 10 | 30 | – | –
Cc1n[nH]c2c(NCc3ccccc3O)nc(NCCO)nc12 | 20 | 50 | – | –
COc1ccc(CNc2nc(NCCO)nc3c(C)n[nH]c23)c(O)c1O | 8 | 28 | – | –
COc1cc(O)c(CNc2nc(NCCO)nc3c(C)n[nH]c23)cc1O | 7 | 15 | – | –
Cc1n[nH]c2c(NCc3c(O)cc(Cl)cc3O)nc(NCCO)nc12 | 5 | 12 | – | –
CC(=O)Oc1cccc(CNc2nc(NCCO)nc3c(C)n[nH]c23)c1 | 400 | 1700 | – | –
CC(=O)c1cccc(CNc2nc(NCCO)nc3c(C)n[nH]c23)c1 | 40 | 90 | – | –
Cc1n[nH]c2c(Nc3ccc(Cl)c(N)c3)nc(NCCO)nc12 | 9 | 23 | – | –
Cc1n[nH]c2c(Nc3ccc(Cl)c(C(=O)O)c3)nc(NCCO)nc12 | 5 | 10 | – | –
Cc1n[nH]c2c(Nc3ccc(O)c(C(=O)O)c3)nc(NCCO)nc12 | 20 | 50 | – | –
Cc1n[nH]c2c(Nc3ccc(N)c(Cl)c3)nc(NCCO)nc12 | 12 | 29 | – | –
Cc1n[nH]c2c(Nc3ccc(C(=O)O)c(Cl)c3)nc(NCCO)nc12 | 7 | 14 | – | –
Cc1n[nH]c2c(Nc3cc(N)cc(Cl)c3)nc(NCCO)nc12 | 10 | 20 | – | –
CC(C)c1n[nH]c2c(Nc3cccc(Cl)c3)nc(NCCO)nc12 | 110 | 280 | – | –
Cc1n[nH]c2c(Nc3cccc(Cl)c3)nc(NCCO)nc12 | 40 | 90 | – | –
Cc1n[nH]c2c(NCc3cccc(O)c3)nc(NCCO)nc12 | 80 | 240 | – | –
Cc1n[nH]c2c(NCc3ccc(O)c(O)c3)nc(NCCO)nc12 | 5000 | 11000 | – | –
Cc1n[nH]c2c(Nc3ccc(Br)cc3)nc(NCCO)nc12 | 8 | 20 | – | –
Cc1n[nH]c2c(Nc3ccc(Cl)cc3)nc(NCCO)nc12 | 9 | 19 | – | –

Structure (SMILES) | IC50 [1] [nM] | IC50 [2] [nM] | GI50 [3] [nM] | GI50 [4] [nM]
CC(C)c1n[nH]c2c(Nc3cccc(Cl)c3)nc(NCCCO)nc12 | 80 | 200 | – | –
CC(C)c1n[nH]c2c(Nc3cccc(Cl)c3)nc(N(CCO)CCO)nc12 | 90 | 190 | – | –
CC(=O)c1ccccc1CNc1nc(N[C@@H](CO)C(C)C)nc2c(C(C)C)n[nH]c12 | 20 | 50 | – | –
CC(C)c1n[nH]c2c(NCc3c(N)cccc3Cl)nc(N[C@@H](CO)C(C)C)nc12 | – | – | 1500 | 2500
CC(C)c1n[nH]c2c(NCc3cccc(Cl)c3O)nc(N[C@@H](CO)C(C)C)nc12 | – | – | 700 | 1100
Cc1cccc(CNc2nc(N[C@@H](CO)C(C)C)nc3c(C(C)C)n[nH]c23)c1O | – | – | 1200 | 3500
CC(C)c1n[nH]c2c(NCc3ccccc3O)nc(N[C@@H](CO)C(C)C)nc12 [listing 1 of 2 here] | 0.5 | 1 | – | –
CC(C)c1n[nH]c2c(NCc3ccccc3O)nc(N[C@@H](CO)C(C)C)nc12 [listing 2 of 2 here] | – | – | 6700 | 9800
CC(C)c1n[nH]c2c(NCc3ccc(Cl)c(O)c3O)nc(N[C@@H](CO)C(C)C)nc12 [listing 1 of 2 here] | 0.2 | 1 | – | –
COc1ccc(CNc2nc(N[C@@H](CO)C(C)C)nc3c(C(C)C)n[nH]c23)c(O)c1O [listing 1 of 2 here] | 0.4 | 1.2 | – | –
COc1ccc(CNc2nc(N[C@@H](CO)C(C)C)nc3c(C(C)C)n[nH]c23)c(O)c1O [listing 2 of 2 here] | – | – | 600 | 2500
CC(C)c1n[nH]c2c(NCc3ccc(Cl)c(O)c3O)nc(N[C@@H](CO)C(C)C)nc12 [listing 2 of 2 here] | – | – | 900 | 1400
COc1cc(O)c(CNc2nc(N[C@@H](CO)C(C)C)nc3c(C(C)C)n[nH]c23)cc1O [listing 1 of 2 here] | 0.6 | 1.5 | – | –
CC(C)c1n[nH]c2c(NCc3cc(O)c(Cl)cc3O)nc(N[C@@H](CO)C(C)C)nc12 [listing 1 of 2 here] | – | – | 1300 | 2700
CC(C)c1n[nH]c2c(NCc3cc(O)c(Cl)cc3O)nc(N[C@@H](CO)C(C)C)nc12 [listing 2 of 2 here] | 0.8 | 1 | – | –
COc1cc(O)c(CNc2nc(N[C@@H](CO)C(C)C)nc3c(C(C)C)n[nH]c23)cc1O [listing 2 of 2 here] | – | – | 1700 | 2500
CC(C)c1n[nH]c2c(NCc3c(O)cc(Cl)cc3O)nc(N[C@@H](CO)C(C)C)nc12 [listing 1 of 2 here] | 1 | 2 | – | –
COc1cc(O)c(CNc2nc(N[C@@H](CO)C(C)C)nc3c(C(C)C)n[nH]c23)c(O)c1 | 0.7 | 1.6 | – | –
CC(C)c1n[nH]c2c(NCc3c(O)cc(Cl)cc3O)nc(N[C@@H](CO)C(C)C)nc12 [listing 2 of 2 here] | – | – | 400 | 1200
CC(=O)Oc1cccc(CNc2nc(N[C@@H](CO)C(C)C)nc3c(C(C)C)n[nH]c23)c1 | – | – | 12500 | 14600
CC(=O)c1cccc(CNc2nc(N[C@@H](CO)C(C)C)nc3c(C(C)C)n[nH]c23)c1 | 1 | 5 | – | –
CC(C)c1n[nH]c2c(Nc3ccc(Cl)c(N)c3)nc(N[C@@H](CO)C(C)C)nc12 | – | – | 2900 | 4400
CC(C)c1n[nH]c2c(NCc3ccc(Cl)c(N)c3)nc(N[C@@H](CO)C(C)C)nc12 | – | – | 2600 | 4400

Structure (SMILES) | IC50 [1] [nM] | IC50 [2] [nM] | GI50 [3] [nM] | GI50 [4] [nM]
CC(C)c1n[nH]c2c(Nc3ccc(Cl)c(C(=O)O)c3)nc(N[C@@H](CO)C(C)C)nc12 | – | – | 5800 | 9100
CC(C)c1n[nH]c2c(Nc3ccc(O)c(C(=O)O)c3)nc(N[C@@H](CO)C(C)C)nc12 | – | – | 2700 | 4200
CC(C)c1n[nH]c2c(Nc3ccc(C(=O)O)c(Cl)c3)nc(N[C@@H](CO)C(C)C)nc12 | – | – | 7600 | 12400
CC(C)c1n[nH]c2c(Nc3ccc(N)c(Cl)c3)nc(N[C@@H](CO)C(C)C)nc12 | – | – | 2500 | 4800
CC(C)c1n[nH]c2c(NCc3cccc(O)c3)nc(N[C@@H](CO)C(C)C)nc12 [listing 1 of 2 here] | 2 | 4 | – | –
CC(C)c1n[nH]c2c(NCc3cccc(O)c3)nc(N[C@@H](CO)C(C)C)nc12 [listing 2 of 2 here] | – | – | 4900 | 8500
CC(C)c1n[nH]c2c(NCc3ccc(O)c(O)c3)nc(N[C@@H](CO)C(C)C)nc12 | 150 | 310 | – | –
CC(C)c1n[nH]c2c(Nc3ccc(Br)cc3)nc(N[C@@H](CO)C(C)C)nc12 | – | – | 5800 | 11400
CC(C)c1n[nH]c2c(Nc3ccc(Cl)cc3)nc(N[C@@H](CO)C(C)C)nc12 | – | – | 4100 | 5700
CC(C)c1n[nH]c2c(N(C)CCc3ccc(O)c(O)c3)nc(N[C@@H](CO)C(C)C)nc12 | 90 | 150 | – | –
CC(C)c1n[nH]c2c(N(C)Cc3ccc(O)c(O)c3)nc(N[C@@H](CO)C(C)C)nc12 | 30 | 110 | – | –
CC(C)c1n[nH]c2c(Nc3ccccc3)nc(N[C@@H](CO)C(C)C)nc12 | – | – | 2500 | 3600
CC[C@H](CO)Nc1nc(NCc2c(O)cc(OC)cc2O)c2[nH]nc(C(C)C)c2n1 | – | – | 1800 | 3400
CC[C@H](CO)Nc1nc(Nc2ccc(Cl)c(C(=O)O)c2)c2[nH]nc(C(C)C)c2n1 | – | – | 4500 | 5200
CC[C@H](CO)Nc1nc(Nc2ccc(N)c(Cl)c2)c2[nH]nc(C(C)C)c2n1 | – | – | 12200 | 19600
CC[C@H](CO)Nc1nc(Nc2ccc(C(=O)O)c(Cl)c2)c2[nH]nc(C(C)C)c2n1 | – | – | 7900 | 11200
CC[C@H](CO)Nc1nc(Nc2ccc(Br)cc2)c2[nH]nc(C(C)C)c2n1 | – | – | 6500 | 9800
CC[C@H](CO)Nc1nc(Nc2ccc(Cl)cc2)c2[nH]nc(C(C)C)c2n1 | – | – | 6700 | 9500
CC[C@H](CO)Nc1nc(N(C)CCc2ccc(O)c(O)c2)c2[nH]nc(C(C)C)c2n1 | 720 | 1500 | – | –
CC[C@H](CO)Nc1nc(N(C)Cc2ccc(O)c(O)c2)c2[nH]nc(C(C)C)c2n1 | 230 | 510 | – | –
Cc1n[nH]c2c(NC(CO)c3ccccc3)nc(NCCO)nc12 (racemic) | – | – | 8900 | 9400
